Measurements from ChEMBL document CHEMBL3507680, “University of Dundee, Gates Library screen for HepG2 cell viability”.

Experiment: Human HepG2 cell viability assay in 384 well format
Assay type: toxicity, cell-based
Parameters: dose 125 nL, time 70.5 hour; cytotoxicity at 70.5 h: concentration not given beside the values
Settings: HepG2 cells, read-out: Inhibition

Row | Structure (SMILES) | cytotoxicity at 70.5 h
1 | CCN(CC)C(=O)C1CCN(C(=O)Nc2cccnc2OC)CC1 | 34.4%
2 | Cc1nc2c(c(C)c1CC(=O)Nc1ccnn1C(C)C)c(=O)[nH]n2C | 2.43%
3 | CCOC(=O)COc1cccc(NC(=O)C2COCCO2)c1 (configuration not stated) | -3.53%
4 | COc1cccc(NC(=O)Cc2c(C)nc3c(c2C)c(=O)[nH]n3C)c1 | -6.7%
5 | Cc1cc(C)n(CC2CCCCN2CC(=O)Nc2nnc(C)s2)n1 (configuration not stated) | -2.39%
6 | CCS(=O)(=O)c1ccc(N2CCC(N)CC2)cc1 | -1.97%
7 | CCS(=O)(=O)c1ccc(N2CCC(NC(=O)NC(C)CO)CC2)cc1 (configuration not stated) | -1.95%
8 | CC(=O)NCCNC(=O)NCCCc1cccc(F)c1 | -5.39%
9 | O=S(=O)(Cc1cccc(F)c1)NCC(O)Cc1ccccc1 (configuration not stated) | -10.7%
10 | COCCCS(=O)(=O)N1CCN(c2cccc(O)c2)CC1 | -6.99%
11 | CCc1nc(NS(=O)(=O)c2cc(C)c(F)cc2Cl)no1 | 25.9%
12 | CCc1nc(NS(=O)(=O)c2ccc(F)cc2Cl)no1 | -8.4%
13 | COc1ncccc1NC(=O)N1CCCC(CNC(=O)OC(C)(C)C)C1 (configuration not stated) | -6.55%
14 | c1nc(N2CCCC2Cn2cncn2)c2ccsc2n1 (configuration not stated) | 30.4%
15 | COCCN1CCN(CCS(=O)(=O)c2cccc(OC)c2)CC1 | -2.71%
16 | CCCC1CCCN(C(=O)Nc2cccnc2OC)CC1 (configuration not stated) | 19.4%
17 | Cc1cc(NC(=O)NC2CCCc3c2cnn3CCO)n(C)n1 (configuration not stated) | -1.75%
18 | Cc1nnc(NC(=O)NC2CCCc3c2cnn3CCO)s1 (configuration not stated) | -6.14%
19 | N#Cc1ccc(OCC(O)CN2CCN(c3nccs3)CC2)cc1 (configuration not stated) | 13.7%
20 | Cc1ccc(C)c(S(=O)(=O)NCCC(=O)NCc2ccoc2)c1 | -11.7%
21 | O=C(CCNS(=O)(=O)c1ccc(F)cc1)NCc1ccoc1 | -9.41%
22 | Cc1cc(C)c(S(=O)(=O)NCCC(=O)NCc2ccoc2)c(C)c1 | 3.02%
23 | O=C(CCNS(=O)(=O)c1ccc(Cl)cc1)NCc1ccoc1 | -5.84%
24 | Cc1ccc(CNC(=O)NC2CCCc3c2cnn3CCO)cn1 (configuration not stated) | -11.1%

Row | Structure (SMILES) | cytotoxicity at 70.5 h
25 | CC(C)CCC(=O)Nc1ccc2oc(=O)n(CCN(C)C)c2c1 | -1.73%
26 | CN(Cc1ccncc1)C(=O)CCNS(=O)(=O)c1cccnc1 | 2.92%
27 | CC(C)NC(=O)CCNC(=O)c1cnc(Cc2ccc(F)cc2)s1 | -4.85%
28 | COC(=O)CCNC(=O)c1cnc(Cc2ccc(F)cc2)s1 | -2.52%
29 | Cc1ccc(C(=O)N(CCC#N)Cc2ccccn2)cc1C | 8.47%
30 | Cc1cccc(OCC(O)CN2CCN(c3nccs3)CC2)c1 (configuration not stated) | -3.61%
31 | COCc1ccc(C(=O)N(CCC#N)Cc2ccccn2)cc1 | -3.02%
32 | Cc1nc(COc2ccc(CNCCn3cccn3)cc2)cs1 | 4.56%
33 | CC(O)CN1CCN(C(=O)c2cnn(-c3ccccc3Cl)c2)CC1 (configuration not stated) | -2.98%
34 | Cc1cnn(CCNCc2ccc(OCc3cscn3)cc2)c1 | -6.84%
35 | CN(C)CCCNC(=O)c1cnc(Cc2ccc(F)cc2)s1 | -6.21%
36 | COc1c(C)cnc(CSc2nnc(N3CCCC3)s2)c1C | 8.14%
37 | O=C(O)c1ccc(S(=O)(=O)Nc2c(F)cccc2-n2cccn2)cc1 | -1.35%
38 | CCN(CC1CN(Cc2cccc(C#N)c2)CCO1)c1cccnn1 (configuration not stated) | 0.605%
39 | CC(C)OCCC(=O)NCCc1csc(N2CCCC2)n1 | 5.53%
40 | COc1c(C)cnc(CSc2nnc(N)s2)c1C | -3.12%
41 | Cc1cnn(CCNCc2ccc(OCc3ccccn3)cc2)c1 | 2.45%
42 | COc1cc(C(=O)N(CCC#N)Cc2ccccn2)ccc1C | 2.05%
43 | Cc1ccc(C2COCCN2C(=O)c2ccc(C#N)cc2)o1 (configuration not stated) | -7.82%
44 | COCc1ccc(C(=O)N2CCOCC2c2ccc(C)o2)cc1 (configuration not stated) | -0.476%
45 | Cc1cnn(CCNCc2ccc(OCc3noc(C)n3)cc2)c1 | -6.14%
46 | O=C(CCNS(=O)(=O)c1ccccc1F)NCc1ccoc1 | 4.05%
47 | CC(C)(O)CSCCNCc1ccc(Cl)c2cccnc12 | 12.8%
48 | COCCCNC1CCCN(c2ccc(C)nn2)C1 (configuration not stated) | -9.97%

Row | Structure (SMILES) | cytotoxicity at 70.5 h
49 | Cc1cccc(S(=O)(=O)N2CSCC2C(=O)NC(C)(C)C)c1 (configuration not stated) | -3.48%
50 | CC(C)(C)NC(=O)C1CSCN1S(=O)(=O)c1ccccc1S(C)(=O)=O (configuration not stated) | -1.89%
51 | CC(C)(C)NC(=O)C1CSCN1S(=O)(=O)c1ccccc1F (configuration not stated) | -4.62%
52 | CN(c1ccc2ccccc2c1)S(=O)(=O)c1cc(C(=O)O)cs1 | -8.18%
53 | O=C(NC1CCN(C2CC2)CC1)NC1CCOc2ccc(Br)cc21 (configuration not stated) | 5.74%
54 | Cc1cccc(N(C)S(=O)(=O)c2cc(C(=O)O)cs2)c1C | -5.76%
55 | Cc1noc(Cl)c1CC(=O)NCC(C)(O)c1ccc(F)cc1F (configuration not stated) | 10.7%
56 | CSCCc1ccc(NC(=O)NC(C)Cn2cncn2)cc1 (configuration not stated) | -2.38%
57 | COC(=O)NCC(=O)NCC(C)(C)c1cccc(C(F)(F)F)c1 | -1.23%
58 | CC1CN(C2CCN(Cc3nccn3CC(F)(F)F)CC2)CCO1 (configuration not stated) | -9.54%
59 | CC(C)C(C#N)N1CCN(Cc2nccn2CC(F)(F)F)CC1 (configuration not stated) | -10.7%
60 | CCN(Cc1ccccc1)C1CCN(c2cc(C)nn2C)C1=O (configuration not stated) | -8.27%
61 | Cn1cc(C(=O)Nc2ccnc(Oc3ccccc3)c2)ccc1=O | -5.49%
62 | CN(C(=O)COC1CCCCC1)C1CCN(CC2CCOC2)CC1 (configuration not stated) | -1.92%
63 | O=C(C[S+]([O-])Cc1c(F)cccc1Cl)N1CCc2sccc2C1 (configuration not stated) | -6.1%
64 | O=C(C[S+]([O-])Cc1ccc(F)cc1Cl)N1CCc2sccc2C1 (configuration not stated) | -6.4%
65 | COC(=O)c1sc(NCc2ccc(N3CCC(O)CC3)c(F)c2)nc1Cl | -4.16%
66 | Cc1c(C(=O)NC2(C#N)CCCC2)nnn1-c1ccccc1Cl | -9.11%
67 | Cc1c(C(=O)NC2(C#N)CCSC2)cnn1-c1ccccc1Cl (configuration not stated) | 1.06%
68 | CN(CC(=O)N(C)C1CCN(CC2CCOC2)CC1)c1ccccc1 (configuration not stated) | -4.84%
69 | CCn1cc(NC(=O)c2cccc(OCC(F)(F)F)n2)cn1 | -7.52%
70 | O=c1c2cccnc2cnn1CC(O)c1cccc(C(F)(F)F)c1 (configuration not stated) | 11.1%
71 | CN1CCN(S(=O)(=O)c2cccc(C#N)c2)c2ccc(F)cc21 | 0.333%
72 | Cc1cc(C(=O)NC2CC(=O)N(C(C)C)C2=O)c(C)n1C(C)C (configuration not stated) | -7.47%

Row | Structure (SMILES) | cytotoxicity at 70.5 h
73 | O=C(NCCOc1ccc(C(F)(F)F)cn1)c1ccoc1 | -6.01%
74 | Cc1nc(C)c(C(=O)NCCOc2ccc(C(F)(F)F)cn2)o1 | -3.32%
75 | Cc1occc1C(=O)NCCOc1ccc(C(F)(F)F)cn1 | 18.8%
76 | CC(NCc1cnc(C2CCC2)s1)c1ccccc1-n1cccn1 (configuration not stated) | -3.26%
77 | CCc1nnc2ccc(NCC3(O)CCOCC3)nn12 | -7.18%
78 | CC(NCc1cnc(C2CCC2)s1)c1ccc(-n2cccn2)cc1 (configuration not stated) | -8.33%
79 | CN(C(=O)COC1CCCC1)C1CCN(CC2CCOC2)CC1 (configuration not stated) | -11.5%
80 | CNC(=O)CCCNCc1c(C)nn(CC(C)C)c1N(C)C | 0.675%
81 | CC(C)=CCS(=O)(=O)Cc1noc(CC(C)C)n1 | -1.31%
82 | CN(CC(=O)Nc1cccc(F)c1)Cc1nc(N)nc(N(C)C)n1 | 1.01%
83 | O=S(=O)(N1CCOCC1)N1CCc2sccc2C1 | 6.06%
84 | CN(C)c1nc(N)nc(CSCCC(=O)Nc2cccc(Cl)c2)n1 | 19.2%
85 | CC(C)c1noc(CS(=O)(=O)Cc2nc(C(C)C)no2)n1 | -7.1%
86 | O=S(=O)(c1ccccc1)N1CCN(Cc2ccc(F)cc2Br)CC1 | -8.77%
87 | O=C(c1cc(Cl)c2c(c1)OCCCO2)N(CC1CCOC1)C1CC1 (configuration not stated) | -7.67%
88 | CC(C)S(=O)(=O)CC(=O)N(Cc1ccsc1)c1ccccc1 | -7.19%
89 | Cn1cc(NC(=O)Cc2cccs2)c(=O)n(C)c1=O | -9.77%
90 | N#Cc1nccnc1N1CCC(CSc2ccccc2)C1 (configuration not stated) | -9.74%
91 | O=S(=O)(N1CCCC1)N1CCc2sccc2C1 | 0.675%
92 | CCc1nc(C)ncc1C(=O)N1CCN(CC)c2ccccc21 | 8.71%
93 | CCc1nc(C)ncc1C(=O)N1CC(=O)N(C)c2ccccc21 | -10.1%
94 | COc1ncc(Cl)c(NCc2ccc(C(=O)N(C)C)cc2)n1 | 27.7%
95 | N#Cc1nccnc1N1CCC(OCCCc2ccccc2)C1 (configuration not stated) | -6.29%
96 | CCc1nc(C)ncc1C(=O)N1CC(C)CN(C)c2ccccc21 (configuration not stated) | -7.55%

Row | Structure (SMILES) | cytotoxicity at 70.5 h
97 | Cc1nc(C2CCCN2Cc2cc(Cl)c3c(c2)OCCO3)no1 (configuration not stated) | 16.9%
98 | COC1CCCN(C(=O)NCCCF)C1 (configuration not stated) | -2.7%
99 | Cc1ccc(C2CN(Cc3cnc(-c4ccccn4)s3)CCO2)o1 (configuration not stated) | 22.5%
100 | N#CCCN(CCC#N)C(=O)CN(C1CC1)C1CCc2ccccc21 (configuration not stated) | -2.92%
101 | CC(NC(=O)C1CCCC1)c1nc(-c2ccccc2)c[nH]1 (configuration not stated) | 1.26%
102 | CCOc1ccc(NC(=O)N2CCNC(=O)C2)c(C(F)(F)F)c1 | 1.37%
103 | O=C(O)CSc1nc(-c2ccc3c(c2)CCC3)n[nH]1 | 2.18%
104 | COCCS(=O)(=O)NC(C)c1ccccc1Br (configuration not stated) | -0.0652%
105 | CC(C)(C)C(=O)NS(=O)(=O)c1ccc(F)cc1C(F)(F)F | -3.41%
106 | CSCc1cccc(NC(=O)N2CCC(N3CC=CC3)C2)c1 (configuration not stated) | 35%
107 | CS(=O)(=O)CCSc1n[nH]c(-c2ccc3c(c2)CCC3)n1 | 3.91%
108 | Cc1cc(C(=O)Nc2cccn(Cc3ccc(F)cc3)c2=O)on1 | -3.03%
109 | CC1CN(C(=O)c2ccc(=O)n(C)c2)c2ccccc2NC1=O (configuration not stated) | -0.859%
110 | CSCC(C)(O)CNc1ncccc1I (configuration not stated) | 7.7%
111 | CN(C)C(CNCc1nc(-c2ccsc2)no1)c1ccco1 (configuration not stated) | -16.8%
112 | Cc1cc(C(C)NCCN2CCC(N(C)C)CC2)c(C)s1 (configuration not stated) | 12.7%
113 | CC(CNCC1(S(C)(=O)=O)CCOCC1)c1ccc(F)cc1 (configuration not stated) | 9.05%
114 | CN(CCS(=O)(=O)c1cc(Cl)ccc1Cl)CC(=O)Nc1ccc(F)cc1 | 6.55%
115 | Fc1cccc2ncnc(NCC3(N4CCOCC4)CCSC3)c12 (configuration not stated) | 3.01%
116 | CN(CC(N)=O)C(=O)c1cnc(-c2ccc(Cl)s2)s1 | -4.25%
117 | CN1CC(C(=O)NCc2cccnc2OCc2ccccc2)CC1=O (configuration not stated) | -4.14%
